Structures can show the parent of a compound that is named as a salt. Where two headings read alike, the source gives them in different places.
Legend:
[1] = tested on: HUVECs; assay: High-content imaging cytotoxicity in HUVECs, 24 h; type: cell-based, human; conditions: Homo sapiens, HUVEC, 24 h, HUVECs; for viability at 0.01 µM / activity at 0.01 µM / viability at 0.1 µM / activity at 0.1 µM / viability at 1 µM / activity at 1 µM / viability at 10 µM / activity at 10 µM / viability at 100 µM / activity at 100 µM: 0.00 µM = 100.00; for viability at 0.1 µM / activity at 0.1 µM: 0.10 µM; for minimal effective concentration: top concentration 100.00 µM
In short: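 HUVECs (passages 1–5) grown to monolayer over 3–5 d, then exposed 24 h at 37°C, 5% CO2; stained with Hoechst 33342, MitoTracker Orange and calcein AM and imaged at 10×. Readouts normalized to 0.5% DMSO vehicle, four-parameter logistic fit; POD at one-SD cutoff, 100μM assigned when no response.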

[2] = tested on: iCell cardiomyocytes (human iPSC-derived cardiomyocytes); assay: High-content imaging of cytotoxicity and mitochondrial integrity in iPSC-CMs; type: cell-based; conditions: Homo sapiens, Cardiomyocyte; for viability at 0.01 µM / activity at 0.01 µM / viability at 0.1 µM / activity at 0.1 µM / viability at 1 µM / activity at 1 µM / viability at 10 µM / activity at 10 µM / viability at 100 µM / activity at 100 µM: 0.00 µM = 100.00; for viability at 0.1 µM / activity at 0.1 µM: 0.10 µM
In short: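 Human iPSC-derived cardiomyocytes were seeded on gelatin-coated 384-well plates at 5,000 cells per well and maintained for 12 d. Test chemicals were added as 10μL of 5× solutions to final concentrations of 0.01 to 100μM. Cells were stained with Hoechst 33342 and MitoTracker™ Orange, fixed in formaldehyde, and imaged by confocal high-content microscopy at 10× magnification.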

[3] = 24 hr, read-out: huvec.cyto.24hr
[4] = 24 hr, read-out: huvec.mito.24hr
[5] = 24 hr, read-out: huvec.mitoint.24hr
[6] = 24 hr, read-out: huvec.nma.24hr
[7] = 24 hrs, read-out: huvec.tc.24hrs
[8] = 1.5 h, 90min, read-out: cm.cam.90min
[9] = 1.5 h, 90min, read-out: cm.mii.90min
[10] = 1.5 h, 90min, read-out: cm.mito.90min
[11] = 1.5 h, 90min, read-out: cm.tc.90min
[12] = 24 h, 24hrs, read-out: cm.cam.24hrs
[13] = 24 h, 24hrs, read-out: cm.mii.24hrs
[14] = 24 h, 24hrs, read-out: cm.mito.24hrs
[15] = 24 h, 24hrs, read-out: cm.tc.24hrs

Compound: O=S(=O)(O)Oc1cc(Cl)c(-c2cc(Cl)ccc2Cl)cc1Cl [4-yl PCB 52 sulfate]
- viability at 0.01 µM [1, 3]: 99.3%
- activity at 0.01 µM [1, 4]: 98.2%
- activity at 0.01 µM [1, 5]: 110%
- activity at 0.01 µM [1, 6]: 98.4%
- viability at 0.1 µM [1, 3]: 105%
- activity at 0.1 µM [1, 4]: 105%
- activity at 0.1 µM [1, 5]: 113%
- activity at 0.1 µM [1, 6]: 96.2%
- viability at 1 µM [1, 3]: 93.5%
- activity at 1 µM [1, 4]: 92.9%
- activity at 1 µM [1, 5]: 107%
- activity at 1 µM [1, 6]: 99.1%
- viability at 10 µM [1, 3]: 91.2%
- activity at 10 µM [1, 4]: 89.3%
- activity at 10 µM [1, 5]: 111%
- activity at 10 µM [1, 6]: 98.4%
- viability at 100 µM [1, 3]: 59.6%
- activity at 100 µM [1, 4]: 61.8%
- activity at 100 µM [1, 5]: 74.7%
- activity at 100 µM [1, 6]: 206%
- minimal effective concentration ([1]; 24 hr, read-out: huvec.cyto.24hr POD): 5.38 µM
- minimal effective concentration ([1]; 24 hr, read-out: huvec.mito.24hr POD): 3.31 µM
- minimal effective concentration ([1]; 24 hr, read-out: huvec.mitoint.24hr POD): 61.2 µM
- minimal effective concentration ([1]; 24 hr, read-out: huvec.nma.24hr POD): 33.9 µM
- viability at 0.01 µM [1, 7]: 99.3%
- viability at 0.1 µM [1, 7]: 105%
- viability at 1 µM [1, 7]: 93.5%
- viability at 10 µM [1, 7]: 91.2%
- viability at 100 µM [1, 7]: 61.8%
- minimal effective concentration ([1]; 24 hrs, read-out: huvec.tc.24hrs POD): 5.38 µM
- viability at 0.01 µM [2, 8]: 106%
- activity at 0.01 µM [2, 9]: 103%
- activity at 0.01 µM [2, 10]: 106%
- viability at 0.01 µM [2, 11]: 106%
- viability at 0.1 µM [2, 8]: 93.3%
- activity at 0.1 µM [2, 9]: 129%
- activity at 0.1 µM [2, 10]: 92.9%
- viability at 0.1 µM [2, 11]: 92.8%
- viability at 1 µM [2, 8]: 98.7%
- activity at 1 µM [2, 9]: 130%
- activity at 1 µM [2, 10]: 98.5%
- viability at 1 µM [2, 11]: 98.4%
- viability at 10 µM [2, 8]: 97.1%
- activity at 10 µM [2, 9]: 109%
- activity at 10 µM [2, 10]: 96.8%
- viability at 10 µM [2, 11]: 97.1%
- viability at 100 µM [2, 8]: 0.07%
- activity at 100 µM [2, 9]: 31.5%
- activity at 100 µM [2, 10]: 0.16%
- viability at 100 µM [2, 11]: 0.16%
- minimal effective concentration ([2]; 1.5 h, 90min, read-out: cm.cam.90min POD): 10.8 µM
- minimal effective concentration ([2]; 1.5 h, 90min, read-out: cm.mii.90min POD): 41.2 µM
- minimal effective concentration ([2]; 1.5 h, 90min, read-out: cm.mito.90min POD): 10.6 µM
- minimal effective concentration ([2]; 1.5 h, 90min, read-out: cm.tc.90min POD): 10.8 µM
- viability at 0.01 µM [2, 12]: 95.3%
- activity at 0.01 µM [2, 13]: 98.6%
- activity at 0.01 µM [2, 14]: 93.3%
- viability at 0.01 µM [2, 15]: 96.5%
- viability at 0.1 µM [2, 12]: 103%
- activity at 0.1 µM [2, 13]: 122%
- activity at 0.1 µM [2, 14]: 104%
- viability at 0.1 µM [2, 15]: 104%
- viability at 1 µM [2, 12]: 104%
- activity at 1 µM [2, 13]: 111%
- activity at 1 µM [2, 14]: 104%
- viability at 1 µM [2, 15]: 104%
- viability at 10 µM [2, 12]: 91.5%
- activity at 10 µM [2, 13]: 107%
- activity at 10 µM [2, 14]: 89.6%
- viability at 10 µM [2, 15]: 91.7%
- viability at 100 µM [2, 12]: 1.67%
- activity at 100 µM [2, 13]: 12.2%
- activity at 100 µM [2, 14]: 0.34%
- viability at 100 µM [2, 15]: 3.82%
- minimal effective concentration ([2]; 24 h, read-out: cm.cam.24hrs POD): 8.2 µM
- minimal effective concentration ([2]; 24 h, read-out: cm.mii.24hrs POD): 44.6 µM
- minimal effective concentration ([2]; 24 h, read-out: cm.mito.24hrs POD): 8.28 µM
- minimal effective concentration ([2]; 24 h, read-out: cm.tc.24hrs POD): 8.44 µM
